Experimental data reported in patent US10231956B2, “3-(1H-pyrrolo[3,2-C]pyridin-2-YL)-1 H-pyrazolo[4,3-B]pyridines and therapeutic uses thereof” (Samumed, LLC, priority 2015, dated 2019).

How the values were obtained:
Assay type in all cases: cell-based
[1] = tested on: Wnt activity (Sp5-Luc reporter, SW480 colon carcinoma cells); assay: Sp5-Luc reporter gene screening assay for Wnt activity in SW480 cells; settings: Homo sapiens, luminescence, overnight incubation
Text: The screening assay for Wnt activity is described as follows. Reporter cell lines can be generated by stably transducing cancer cell lines (e.g., colon cancer) or primary cells (e.g., IEC-6 intestinal cells) with a lentiviral construct that includes a Wnt-responsive promoter driving expression of the firefly luciferase gene.
SW480 colon carcinoma cells were transduced with a lentiviral vector expressing luciferase with a human Sp5 promoter consisting of a sequence of eight TCF/LEF binding sites. SW480 cells stably expressing the Sp5-Luc reporter gene and a hygromycin resistance gene were selected by treatment with 150 μg/mL of hygromycin for 7 days. These stably transduced SW480 cells were expanded in cell culture and used for all further screening activities. Each compound was dissolved in DMSO as a 10 mM stock and used to prepare compound source plates. Serial dilution (1:3, 10-point dose-response curves starting from 10 μM) and compound transfer was performed using the ECHO 550 (Labcyte, Sunnyvale, Calif.) into 384-well white solid bottom assay plates (Greiner Bio-One) with appropriate DMSO backfill for a final DMSO concentration of 0.1%. For Sp5-Luc reporter gene assays, the cells were plated at 4,000 cells/well in 384-well plates with medium containing 1% fetal bovine serum and incubated overnight at 37° C. and 5% CO2. Following incubation, 20 μl of BrightGlo luminescence reagent (Promega) was added to each well of the 384-well assay plates. The plates were placed on an orbital shaker for 2 min and then luminescence was quantified using the Envision (Perkin Elmer) plate reader. Readings were normalized to DMSO only treated cells, and normalized activities were utilized for EC50 calculations using the dose-response log (inhibitor) vs. response-variable slope (four parameters) nonlinear regression feature available in GraphPad Prism 5.0 (or Dotmatics). For EC50 of >10 μM, the percent inhibition at 10 μM is provided.

SW480 colon cancer cells = assay: Cell viability assay (CellTiter-Blue) in SW480 colon cancer cells; settings: Homo sapiens, 96 h, four days, CellTiter-Blue
Method: Representative compounds were screened using the following assay procedure to assess the effect on cell viability as described below.
Each compound was dissolved in DMSO as a 10 mM stock and used to prepare compound source plates. Serial dilution (1:3, 8-point dose-response curves from 10 μM to 0.0045 μM) and compound transfer was performed using the ECHO 550 (Labcyte, Sunnyvale, Calif.) into 96-well clear bottom, black-walled plates (Corning-Costar).
Approximately 2×10^3 SW480 colon cancer cells were seeded into each well and allowed to incubate in the presence or absence of compound for four days at 37° C./5% CO2. Eight replicates of DMSO-treated cells served as controls and cells treated with compound were performed in duplicate.
After incubation, 20 μL of CellTiter-Blue (Promega) was added to each well allowed to incubate for approximately 3 hours. This reagent was a buffered solution which contains resazurin, metabolically active cells were able to reduce rezarurin (blue) into resorufin (pink) which was highly fluorescent. This measured fluorescence was used as a readout for cell viability.
After incubation, the plates were read at Ex 560 nm Em 590 nm (Cytation 3, BioTek). Dose-response curves were generated and EC50 concentration values were calculated using non-linear regression curve fit in the GraphPad Prism (San Diego, Calif.) or Dotmatics' Studies Software (Bishops Stortford, UK). For EC50 of >10 μM, the percent inhibition at 10 μM is provided.

[2] = tested on: primary human fibroblasts derived from IPF patients (LL29 cells); assay: Inhibition of fibrotic process: αSMA staining in TGF-β1 treated LL29 fibroblasts; settings: Fibroblast, 96 h, TGF-β1 20 ng/mL, 4 days, % cells positive for αSMA
Text: Representative compounds were screened using primary human fibroblasts (derived from IPF patients) treated with TGF-β1 to determine their ability to inhibit the fibrotic process.
Human Fibroblast Cell Culture: Primary human fibroblasts derived from IPF patients (LL29 cells) [^1Xiaoqiu Liu, et. al., “Fibrotic Lung Fibroblasts Show Blunted Inhibition by cAMP Due to Deficient cAMP Response Element-Binding Protein Phosphorylation”, Journal of Pharmacology and Experimental Therapeutics (2005), 315(2), 678-687; ^2Watts, K. L., et. al., “RhoA signaling modulates cyclin D1 expression in human lung fibroblasts; implications for idiopathic pulmonary fibrosis”, Respiratory Research (2006), 7(1), 88] were obtained from American Type Culture Collection (ATCC) and expanded in F12 medium supplemented with 15% Fetal Bovine Serum and Penicillin/Streptomycin.
Compound Screening: Each compound was dissolved in DMSO as a 10 mM stock and used to prepare compound source plates. Serial dilution (1:2, 11-point dose-response curves from […]) and compound transfer was performed using the ECHO 550 (Labcyte, Sunnyvale, Calif.) into 384-well clear bottom assay plates (Greiner Bio-One) with appropriate DMSO backfill for a final DMSO concentration of 0.1%. LL29 cells are plated at 1,500 cells/well in 80 μL/well F12 medium supplemented with 1% Fetal Bovine Serum. One hour after addition of the cells, TGF-β1 (Peprotech; 20 ng/mL) was added to the plates to induce fibrosis (ref. 1 and 2 above). Wells treated with TGF-β1 and containing DMSO were used as controls. Cells were incubated at 37° C. and 5% CO2 for 4 days. Following incubation for 4 days, SYTOX green nucleic acid stain (Life Technologies [Thermo Fisher Scientific]) was added to the wells at a final concentration of 1 μM and incubated at room temperature for 30 min. Cells were then fixed using 4% formaldehyde (Electron Microscopy Sciences), washed 3 times with PBS followed by blocking and permeabilization using 3% Bovine Serum Albumin (BSA; Sigma) and 0.3% Triton X-100 (Sigma) in PBS. Cells were then stained with antibody specific to α-smooth muscle actin (αSMA; Abcam) (ref. 1 and 2 above) in 3% Bovine Serum Albumin (BSA; Sigma) and 0.3% Triton X-100 (Sigma) in PBS, and incubated overnight at 4° C. Cells were then washed 3 times with PBS, followed by incubation with Alexa Flor-647 conjugated secondary antibody (Life Technologies [Thermo Fisher Scientific]) and DAPI at room temperature for 1 hour. Cells were then washed 3 times with PBS and plates were sealed for imaging. αSMA staining was imaged by excitation at 630 nm and emission at 665 nm and quantified using the Compartmental Analysis program on the CellInsight CX5 (Thermo Scientific). Dead or apoptotic cells were excluded from analysis based on positive SYTOX green staining. % of total cells positive for αSMA were counted in each well and normalized to the average of 11 wells treated with TGF-β1 on the same plate using Dotmatics' Studies Software. The normalized averages (fold change over untreated) of 3 replicate wells for each compound concentration were used to create dose-responses curves and EC50 values were calculated using non-linear regression curve fit in the Dotmatics' Studies Software. For EC50 of >10 μM, the percent inhibition at 10 μM is provided.

IL-6 = IL-6 inhibition in LPS-stimulated THP-1 cells (HTRF); settings: Homo sapiens, LPS 500 ng/mL, 22 hours, IL6 HTRF
Method: Human Monocyte Cell Culture: Human monocyte cell line (THP-1 cells; Catalog # TIB-202, ATCC, Manassas, Va.) were cultured in Roswell Park Memorial Institute (RPMI) 1640 Medium (Catalog #21870-100, Buffalo, N.Y.) with 1% L-glutamine, 1% HEPES, 1% Sodium Pyruvate, 2% Sodium Bicarbonate supplemented with 100 units/mL penicillin, 50 μg/mL streptomycin, 2-mercaptoethanol (0.05 mM) [basal medium] and 10% fetal bovine serum (Catalog #16140089, Life Technologies, Carlsbad, Calif.) at 37° C. and 5% CO2.
Compound Screening: THP-1 cells were cultured in basal media with 1% FBS for 24 hours before the start of the assay. Each compound was dissolved in DMSO as a 10 mM stock and used to prepare compound source plates. Serial dilution (1:3, 10-point dose-response curves starting from 1 μM) and compound transfer was performed using the ECHO 550 (Labcyte, Sunnyvale, Calif.) into 384-well white low volume assay plates (Greiner Bio-One) with appropriate DMSO backfill for a final DMSO concentration of 0.1%. THP-1 cells were plated at 5000 cells/well in the 384-well plates and incubated at 37° C. for 2 h. 500 ng/mL of LPS was added after 2 hours and cells were incubated for another 22 hours at 37° C. Plates were spun in a centrifuge for 1 minute at 10,000 rpm and a mixture of anti-IL6 XL665, and anti-IL6 Cryptate diluted in reconstitution buffer (Cisbio Inc.) was added to each well. Following incubation for 3 hrs at room temperature, Homogeneous Time-Resolved Fluorescence (HTRF) was measured using the Envision (Perkin Elmer) at 665 nm and […]. The ratio of fluorescence at 665 nm to 620 nm was used as a readout for IL6 quantification. All samples were processed in duplicate. Readings were normalized to DMSO treated cells and normalized activities were utilized for EC50 calculations using the dose-response log (inhibitor) vs. response-variable slope (four parameters) nonlinear regression feature available in GraphPad Prism 5.0 (or Dotmatics). For EC50 of >10 μM, the percent inhibition at 10 μM is provided.

| Structure (SMILES) | EC50 [1] [nM] | EC50 (SW480 colon cancer cells) [nM] | EC50 (IL-6) [nM] | EC50 [2] [nM] |
| --- | --- | --- | --- | --- |
| c1cc(-c2nccc3[nH]c(-c4n[nH]c5ccc(-c6cncc(CNCC7CCCC7)c6)nc45)cc23)ccn1 [Compound 137, 1-Cyclopentyl-N-((5-(3-(4-(pyridin-4-yl)-1H-pyrrolo[3,2-c]pyridin-2-yl)-1H-pyrazolo[4,3-b]pyridin-5-yl)pyridin-3-yl)methyl)methanamine] | 4490 | 1660 | 9200 | 3240 |
| CN1CCN(c2nccc3[nH]c(-c4n[nH]c5ccc(-c6cncc(NC(=O)CC(C)(C)C)c6)nc45)cc23)CC1 [Compound 240, 3,3-Dimethyl-N-(5-(3-(4-(4-methylpiperazin-1l-yl)-1H-pyrrolo[3,2-c]pyridin-2-yl)-1H-pyrazolo[4,3-b]pyridin-5-yl)pyridin-3-yl)butanamide] | 3510 | 3570 | 418 | 1010 |
| O=C(Nc1cncc(-c2ccc3[nH]nc(-c4cc5c(-c6cccnc6)nccc5[nH]4)c3n2)c1)C1CCCC1 [Compound 106, N-(5-(3-(4-(Pyridin-3-yl)-1H-pyrrolo[3,2-c]pyridin-2-yl)-1H-pyrazolo[4,3-b]pyridin-5-yl)pyridin-3-yl)cyclopentanecarboxamide] | 716 | 737 | 88 | 1320 |
| c1cc2[nH]c(-c3n[nH]c4ccc(-c5cncc(CNCC6CCCC6)c5)nc34)cc2c(-c2ccoc2)n1 [Compound 333, 1-Cyclopentyl-N-((5-(3-(4-(furan-3-yl)-1H-pyrrolo[3,2-c]pyridin-2-yl)-1H-pyrazolo[4,3-b]pyridin-5-yl)pyridin-3-yl)methyl)methanamine] | 3710 | 1190 | 9070 | 714 |
| Cc1ccncc1-c1ccc2[nH]nc(-c3cc4c(-c5cccs5)nccc4[nH]3)c2n1 [Compound 341, 5-(4-Methylpyridin-3-yl)-3-(4-(thiophen-2-yl)-1H-pyrrolo[3,2-c]pyridin-2-yl)-1H-pyrazolo[4,3-b]pyridine] | 1100 | 577 | 5380 | 621 |
| CC(C)(C)C(=O)Nc1cncc(-c2ccc3[nH]nc(-c4cc5c(-c6cccc(F)c6)nccc5[nH]4)c3n2)c1 [Compound 8, N-(5-(3-(4-(3-Fluorophenyl)-1H-pyrrolo[3,2-c]pyridin-2-yl)-1H-pyrazolo [4,3-b]pyridin-5-yl)pyridin-3-yl)pivalamide] | 4860 | 2620 | 118 | 1080 |
| Fc1ccc(-c2nccc3[nH]c(-c4n[nH]c5ccc(-c6ccccn6)nc45)cc23)cc1 [Compound 56, 3-(4-(4-Fluorophenyl)-1H-pyrrolo[3,2-c]pyridin-2-yl)-5-(pyridin-2-yl)-1H-pyrazolo[4,3-b]pyridine] | 3470 | 2590 | 7700 | 1310 |

The next lines start with results.

| EC50 [1] [nM] | EC50 (SW480 colon cancer cells) [nM] | EC50 (IL-6) [nM] | Structure (SMILES) | EC50 [2] [nM] |
| --- | --- | --- | --- | --- |
| 2680 | 1520 | 2750 | c1csc(-c2nccc3[nH]c(-c4n[nH]c5ccc(-c6cncnc6)nc45)cc23)c1 [Compound 363, 5-(Pyrimidin-5-yl)-3-(4-(thiophen-2-yl)-1H-pyrrolo[3,2-c]pyridin-2-yl)-1H-pyrazolo[4,3-b]pyridine] | 529 |
| 150 | 457 | 1790 | Oc1cncc(-c2ccc3[nH]nc(-c4cc5c(-c6cccs6)nccc5[nH]4)c3n2)c1 [Compound 709, 5-(3-(4-(Thiophen-2-yl)-1H-pyrrolo[3,2-c]pyridin-2-yl)-1H-pyrazolo[4,3-b]pyridin-5-yl)pyridin-3-ol] | 34 |
| 8320 | 4120 | 1520 | Fc1cccc(-c2nccc3[nH]c(-c4n[nH]c5ccc(C6CCNCC6)nc45)cc23)c1 [Compound 505, 3-(4-(3-Fluorophenyl)-1H-pyrrolo[3,2-c]pyridin-2-yl)-5-(piperidin-4-yl)-1H-pyrazolo[4,3-b]pyridine] | 2710 |
